These results are taken from ChEMBL document CHEMBL4619777, “A New Class of Dengue and West Nile Virus Protease Inhibitors with Submicromolar Activity in Reporter Gene DENV-2 Protease and Viral Replication Assays” (J Med Chem, 2020).

One data set concerns the target Prothrombin (Homo sapiens, UniProt P00734). Nature of the data set: Inhibition of thrombin (unknown origin) at 25 uM using Boc-Val-Pro-Arg-AMC as substrate preincubated for 15 mins followed by substrate addition and measured for 15 mins by fluorimetric assay. The following applies: 0.25 h.
Data set [1] concerns the target Genome polyprotein (West Nile virus) (UniProt P06935). The experiment in a line: Inhibition of West Nile virus NS2B-NS3 protease expressed in Escherichia coli BL21 lambda (DE3) cells at 50 uM using Abz-Gly-Leu-Lys-Arg-Gly-Gly-3-(NO2)Tyr as substrate preincubated for 15 mins followed by substrate addition measured for 15 mins by fluorimetric analysis relative to control.

For data set [2], the target named is Genome polyprotein (dengue virus type 2) (UniProt P29990). Nature of the data set: Inhibition of Dengue virus serotype 2 NS2B-NS3 protease expressed in Escherichia coli BL21 lambda (DE3) cells at 50 uM using Abz-Nle-Lys-Arg-Arg-Ser-3-(NO2)Tyr as substrate preincubated for 15 mins followed by substrate addition and measured for 15 mins by FRET assay relative to control.

A further data set addresses Trypsin (Homo sapiens, UniProt P07477+P07478+P35030). Nature of the data set: Inhibition of trypsin (unknown origin) at 50 uM using Boc-Val-Pro-Arg-AMC as substrate preincubated for 15 mins followed by substrate addition and measured for 15 mins by fluorimetric assay relative to control. The following applies: 0.25 h, 50 µM. Type of data set: protein assay.
The nature of data set [3]: Cytotoxicity against human HeLa cells assessed as reduction in cell viability measured after 24 hrs by celltiter-blue assay. Type of data set: cell-based. (Resazurin is reduced to fluorescent resorufin, in cell work by metabolically active cells.)
Data set [4] has as its target Genome polyprotein (dengue virus type 2) (UniProt P29990). Nature of the data set: Inhibition of Dengue virus serotype 2 NS2B-NS3 protease transfected in human HeLa cells at 12.5 uM measured after 24 hrs by Renilla-luciferase reporter gene assay relative to control. In kind it is cell-based. For orientation: Reporter assays use an easily measured gene product as a stand-in for the process of interest.

SMILES strings stand for the structures. Some results are limits rather than exact numbers.

Chain of Genome polyprotein (West Nile virus) (P06935 whole entry): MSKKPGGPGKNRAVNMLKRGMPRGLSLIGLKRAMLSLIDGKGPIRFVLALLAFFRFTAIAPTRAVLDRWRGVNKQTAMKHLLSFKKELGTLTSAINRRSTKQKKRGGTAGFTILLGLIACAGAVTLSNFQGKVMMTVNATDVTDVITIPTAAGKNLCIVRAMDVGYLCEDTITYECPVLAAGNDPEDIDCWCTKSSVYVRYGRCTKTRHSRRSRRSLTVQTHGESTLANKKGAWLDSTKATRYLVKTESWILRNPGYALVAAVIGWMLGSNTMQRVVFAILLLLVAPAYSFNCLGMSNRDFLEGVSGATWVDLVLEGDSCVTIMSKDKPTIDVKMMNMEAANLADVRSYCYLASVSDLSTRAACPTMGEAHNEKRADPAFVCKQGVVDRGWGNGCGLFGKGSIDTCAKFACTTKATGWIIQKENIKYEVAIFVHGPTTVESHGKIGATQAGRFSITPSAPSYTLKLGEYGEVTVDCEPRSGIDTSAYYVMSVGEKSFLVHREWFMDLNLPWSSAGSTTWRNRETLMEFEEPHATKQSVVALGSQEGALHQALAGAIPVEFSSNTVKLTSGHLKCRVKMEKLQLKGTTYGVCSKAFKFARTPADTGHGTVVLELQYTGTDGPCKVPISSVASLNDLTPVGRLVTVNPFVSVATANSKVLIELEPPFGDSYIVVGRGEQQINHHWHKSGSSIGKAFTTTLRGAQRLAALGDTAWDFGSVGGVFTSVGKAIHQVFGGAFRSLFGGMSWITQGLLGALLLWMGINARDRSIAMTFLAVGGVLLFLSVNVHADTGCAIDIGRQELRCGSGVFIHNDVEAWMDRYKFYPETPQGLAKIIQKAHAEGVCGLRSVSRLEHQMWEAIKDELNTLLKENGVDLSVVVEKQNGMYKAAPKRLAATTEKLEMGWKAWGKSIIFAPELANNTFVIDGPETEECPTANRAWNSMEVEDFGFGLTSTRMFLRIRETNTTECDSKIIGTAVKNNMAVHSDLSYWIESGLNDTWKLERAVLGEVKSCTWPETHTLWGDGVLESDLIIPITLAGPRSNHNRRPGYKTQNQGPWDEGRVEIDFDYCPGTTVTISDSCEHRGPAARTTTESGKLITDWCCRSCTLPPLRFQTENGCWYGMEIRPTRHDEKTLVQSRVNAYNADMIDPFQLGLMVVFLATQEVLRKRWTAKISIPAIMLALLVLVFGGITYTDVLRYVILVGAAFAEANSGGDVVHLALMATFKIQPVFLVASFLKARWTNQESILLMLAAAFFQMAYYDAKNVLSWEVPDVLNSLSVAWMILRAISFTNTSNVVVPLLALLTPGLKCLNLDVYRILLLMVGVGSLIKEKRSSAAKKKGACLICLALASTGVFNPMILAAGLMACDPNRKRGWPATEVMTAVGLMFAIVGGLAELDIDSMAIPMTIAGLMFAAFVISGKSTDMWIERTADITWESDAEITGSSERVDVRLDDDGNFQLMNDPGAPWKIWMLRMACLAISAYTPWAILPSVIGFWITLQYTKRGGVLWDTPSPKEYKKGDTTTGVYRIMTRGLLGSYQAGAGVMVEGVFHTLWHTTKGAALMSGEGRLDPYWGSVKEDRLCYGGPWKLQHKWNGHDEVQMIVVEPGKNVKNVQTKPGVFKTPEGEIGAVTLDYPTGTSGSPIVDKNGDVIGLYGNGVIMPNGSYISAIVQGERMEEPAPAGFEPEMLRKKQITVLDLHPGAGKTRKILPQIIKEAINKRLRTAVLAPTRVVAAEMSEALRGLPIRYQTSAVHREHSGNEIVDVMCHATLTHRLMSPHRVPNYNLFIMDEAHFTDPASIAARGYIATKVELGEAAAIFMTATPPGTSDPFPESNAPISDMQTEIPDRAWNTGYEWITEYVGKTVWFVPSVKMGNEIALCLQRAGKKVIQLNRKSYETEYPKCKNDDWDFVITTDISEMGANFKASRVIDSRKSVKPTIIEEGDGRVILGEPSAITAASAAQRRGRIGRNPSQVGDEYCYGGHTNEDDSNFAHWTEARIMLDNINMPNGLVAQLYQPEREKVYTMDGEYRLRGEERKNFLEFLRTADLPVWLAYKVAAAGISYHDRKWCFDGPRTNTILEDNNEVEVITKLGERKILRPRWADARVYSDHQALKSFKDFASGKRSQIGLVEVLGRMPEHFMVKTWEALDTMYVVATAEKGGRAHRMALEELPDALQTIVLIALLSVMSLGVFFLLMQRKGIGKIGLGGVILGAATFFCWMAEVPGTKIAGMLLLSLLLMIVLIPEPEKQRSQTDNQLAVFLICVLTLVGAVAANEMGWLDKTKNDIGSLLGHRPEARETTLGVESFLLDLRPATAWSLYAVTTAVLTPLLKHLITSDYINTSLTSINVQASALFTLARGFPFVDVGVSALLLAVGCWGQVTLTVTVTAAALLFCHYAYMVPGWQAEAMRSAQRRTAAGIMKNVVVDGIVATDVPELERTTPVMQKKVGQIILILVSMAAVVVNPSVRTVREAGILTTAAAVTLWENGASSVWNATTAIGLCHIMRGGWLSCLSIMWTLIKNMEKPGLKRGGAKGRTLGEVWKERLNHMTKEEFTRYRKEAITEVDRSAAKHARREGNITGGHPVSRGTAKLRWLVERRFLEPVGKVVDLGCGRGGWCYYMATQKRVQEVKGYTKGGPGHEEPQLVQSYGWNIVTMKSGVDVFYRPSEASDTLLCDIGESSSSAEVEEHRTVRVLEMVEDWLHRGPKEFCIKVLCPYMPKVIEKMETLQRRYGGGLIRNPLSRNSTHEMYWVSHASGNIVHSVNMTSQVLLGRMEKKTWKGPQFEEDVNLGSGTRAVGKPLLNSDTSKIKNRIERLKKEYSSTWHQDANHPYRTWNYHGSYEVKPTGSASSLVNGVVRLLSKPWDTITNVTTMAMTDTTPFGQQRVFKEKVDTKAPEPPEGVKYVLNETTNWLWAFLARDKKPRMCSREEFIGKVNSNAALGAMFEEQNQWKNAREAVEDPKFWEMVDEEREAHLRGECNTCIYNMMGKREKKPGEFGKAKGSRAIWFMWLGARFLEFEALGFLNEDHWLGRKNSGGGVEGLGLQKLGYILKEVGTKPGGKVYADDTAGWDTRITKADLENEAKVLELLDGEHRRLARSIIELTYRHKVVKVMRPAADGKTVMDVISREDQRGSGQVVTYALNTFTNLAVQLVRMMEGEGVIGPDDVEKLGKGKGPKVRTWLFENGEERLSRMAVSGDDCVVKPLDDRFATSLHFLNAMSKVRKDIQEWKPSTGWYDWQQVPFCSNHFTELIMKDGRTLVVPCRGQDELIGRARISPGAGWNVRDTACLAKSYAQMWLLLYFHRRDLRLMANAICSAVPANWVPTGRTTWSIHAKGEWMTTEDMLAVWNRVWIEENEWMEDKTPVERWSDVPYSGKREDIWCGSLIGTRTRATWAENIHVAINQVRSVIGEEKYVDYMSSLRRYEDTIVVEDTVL

As usually defined, the inhibition is the change of the read-out against control, counted positive when it falls. A low value points to a response near the control. Broadly, the CC50 is the concentration giving 50% cytotoxicity. `CC(=O)N[C@H](C(=O)NCc1ccc(NC(=N)N)cc1)c1ccc(OCc2ccccc2)cc1.O=C(O)C(F)(F)F`: the “inhibition (INH)” value at Prothrombin and on Trypsin was “Not Active” in each case. Further, the inhibition in data set [1] is less than 10%; in data set [2], less than 10%; in data set [4], 28.9%. Also, the CC50 at 24 h in data set [3] is greater than 50 µM.

Consider `N=C(N)Nc1ccc(CNC(=O)[C@@H](NC(=O)c2ccccc2)c2ccc(OCc3ccccc3)cc2)cc1.O=C(O)C(F)(F)F`, for which the “inhibition (INH)” value against Prothrombin and at Trypsin was “Not Active” each time. For the same compound, the results for the inhibition in data set [1], in data set [2] and in data set [4] were 18.9%, 39% and 10.5%, respectively. In data set [3], the CC50 at 24 h was greater than 50 µM.

As to `CCCCCC(=O)N[C@H](C(=O)Nc1ccc(NC(=N)N)cc1)c1ccc(OCc2ccccc2)cc1.O=C(O)C(F)(F)F`, the “inhibition (INH)” value against Prothrombin and against Trypsin was “Not Active” in each case. Further, the results for the inhibition in data set [1] and in data set [2] were 53.8% and 62.6%, respectively. Also, the cytotoxic concentration (CC50) at 24 h in data set [3] was no less than 12.5 µM.

For the compound `CCCCCC(=O)N[C@H](C(=O)NCc1ccncc1)c1ccc(OCc2ccccc2)cc1`, the “inhibition (INH)” value at Prothrombin and against Trypsin was “Not Active” throughout. Also, the results for the inhibition in data set [1], in data set [2] and in data set [4] were less than 10%, less than 10% and 40.6%, respectively. Further, the half-maximal cytotoxic concentration (CC50) at 24 h in data set [3] is greater than 50 µM.

For `CCCCCC(=O)N[C@H](C(=O)NCc1ccc(C(=O)NN)cc1)c1ccc(OCc2ccccc2)cc1`, the “inhibition (INH)” value on Prothrombin and against Trypsin was “Not Active” each time. Besides, the inhibition in data set [1] was 55%; in data set [2], 28.3%; in data set [4] it was 30.7%. Also, the CC50 at 24 h in data set [3] is greater than 50 µM.

In the case of `CCCCCC(=O)N[C@H](C(=O)NCCCCN)c1ccc(OCc2ccccc2)cc1`, the “inhibition (INH)” value at Prothrombin and on Trypsin was “Not Active” throughout. Also, the inhibition in data set [1] was less than 10%; in data set [2], 21.3%; in data set [4], 45.8%. Moreover, in data set [3], the CC50 at 24 h is greater than 50 µM.

Take `CCCCCC(=O)N[C@H](C(=O)NCc1ccc(NC(=N)N)cc1)c1ccc(OCc2cccc(OC)c2)cc1.O=C(O)C(F)(F)F`: the “inhibition (INH)” value against Prothrombin and on Trypsin was “Not Active” throughout. For the same compound, the inhibition in data set [1] amounted to 15.7%; in data set [2] it was 32.5%; in data set [4], 26%. In data set [3], the CC50 at 24 h is greater than 50 µM.

Consider `CCCCCC(=O)N[C@H](C(=O)NCCN)c1ccc(OCc2ccccc2)cc1`, for which the “inhibition (INH)” value against Prothrombin and against Trypsin was “Not Active” throughout. Moreover, the inhibition in data set [1] is less than 10%; in data set [2] it was less than 10%; in data set [4], 44%. The CC50 at 24 h in data set [3] was greater than 50 µM.

As for `CCCCCC(=O)N[C@H](C(=O)NCc1ccc(NC(=N)N)cc1)c1ccccc1.O=C(O)C(F)(F)F`, the “inhibition (INH)” value against Prothrombin and against Trypsin was “Not Active” each time. Besides, the values for the inhibition in data set [1], in data set [2] and in data set [4] were less than 10%, less than 10% and 18.8%, respectively. Besides, the cytotoxic concentration (CC50) at 24 h in data set [3] was greater than 50 µM.

`N=C(N)NCCC[C@H](NC(=O)c1ccc(/C=C2\SC(=O)N(C3CCC3)C2=O)cc1)C(=O)N[C@@H](CCCCN)C(=O)N[C@H](C(N)=O)c1ccccc1`: the “inhibition (INH)” value at Prothrombin and against Trypsin was “Not Active” in each case.

Consider `N=C(N)NCCC[C@H](NC(=O)[C@H](Cc1ccc(CN)cc1)NC(=O)c1ccccc1)B(O)O`, for which the “inhibition (INH)” value against Prothrombin and against Trypsin was “Not Active” in each case.

As to `CCCCCC(=O)N[C@H](C(=O)Nc1ccc(CN)cc1)c1ccc(OCc2ccccc2)cc1.O=C(O)C(F)(F)F`, the “inhibition (INH)” value on Prothrombin and against Trypsin was “Not Active” throughout. Moreover, the inhibition in data set [1] is 37.6%; in data set [2], 26.5%. Moreover, in data set [3], the CC50 at 24 h was less than 12.5 µM.
